ChEMBL document CHEMBL1147744, “Discovery of two novel, small-molecule inhibitors of DNA methylation” (J Med Chem, 2006)

Columns and labels:
[1] = target: Orphan methyltransferase M.SssI (Spiroplasma monobiae, UniProt P15840); experiment: Inhibition of recombinant CpG methylase M.SssI
[2] = target: DNA (cytosine-5)-methyltransferase 1 (Homo sapiens, UniProt P26358); experiment: Inhibitory activity against DNA methyl transferase in leukemic NALM6 cells; format: cell-based, NALM-6
DNA (cytosine-5)-methyltransferase 1, sequence (P26358 whole entry): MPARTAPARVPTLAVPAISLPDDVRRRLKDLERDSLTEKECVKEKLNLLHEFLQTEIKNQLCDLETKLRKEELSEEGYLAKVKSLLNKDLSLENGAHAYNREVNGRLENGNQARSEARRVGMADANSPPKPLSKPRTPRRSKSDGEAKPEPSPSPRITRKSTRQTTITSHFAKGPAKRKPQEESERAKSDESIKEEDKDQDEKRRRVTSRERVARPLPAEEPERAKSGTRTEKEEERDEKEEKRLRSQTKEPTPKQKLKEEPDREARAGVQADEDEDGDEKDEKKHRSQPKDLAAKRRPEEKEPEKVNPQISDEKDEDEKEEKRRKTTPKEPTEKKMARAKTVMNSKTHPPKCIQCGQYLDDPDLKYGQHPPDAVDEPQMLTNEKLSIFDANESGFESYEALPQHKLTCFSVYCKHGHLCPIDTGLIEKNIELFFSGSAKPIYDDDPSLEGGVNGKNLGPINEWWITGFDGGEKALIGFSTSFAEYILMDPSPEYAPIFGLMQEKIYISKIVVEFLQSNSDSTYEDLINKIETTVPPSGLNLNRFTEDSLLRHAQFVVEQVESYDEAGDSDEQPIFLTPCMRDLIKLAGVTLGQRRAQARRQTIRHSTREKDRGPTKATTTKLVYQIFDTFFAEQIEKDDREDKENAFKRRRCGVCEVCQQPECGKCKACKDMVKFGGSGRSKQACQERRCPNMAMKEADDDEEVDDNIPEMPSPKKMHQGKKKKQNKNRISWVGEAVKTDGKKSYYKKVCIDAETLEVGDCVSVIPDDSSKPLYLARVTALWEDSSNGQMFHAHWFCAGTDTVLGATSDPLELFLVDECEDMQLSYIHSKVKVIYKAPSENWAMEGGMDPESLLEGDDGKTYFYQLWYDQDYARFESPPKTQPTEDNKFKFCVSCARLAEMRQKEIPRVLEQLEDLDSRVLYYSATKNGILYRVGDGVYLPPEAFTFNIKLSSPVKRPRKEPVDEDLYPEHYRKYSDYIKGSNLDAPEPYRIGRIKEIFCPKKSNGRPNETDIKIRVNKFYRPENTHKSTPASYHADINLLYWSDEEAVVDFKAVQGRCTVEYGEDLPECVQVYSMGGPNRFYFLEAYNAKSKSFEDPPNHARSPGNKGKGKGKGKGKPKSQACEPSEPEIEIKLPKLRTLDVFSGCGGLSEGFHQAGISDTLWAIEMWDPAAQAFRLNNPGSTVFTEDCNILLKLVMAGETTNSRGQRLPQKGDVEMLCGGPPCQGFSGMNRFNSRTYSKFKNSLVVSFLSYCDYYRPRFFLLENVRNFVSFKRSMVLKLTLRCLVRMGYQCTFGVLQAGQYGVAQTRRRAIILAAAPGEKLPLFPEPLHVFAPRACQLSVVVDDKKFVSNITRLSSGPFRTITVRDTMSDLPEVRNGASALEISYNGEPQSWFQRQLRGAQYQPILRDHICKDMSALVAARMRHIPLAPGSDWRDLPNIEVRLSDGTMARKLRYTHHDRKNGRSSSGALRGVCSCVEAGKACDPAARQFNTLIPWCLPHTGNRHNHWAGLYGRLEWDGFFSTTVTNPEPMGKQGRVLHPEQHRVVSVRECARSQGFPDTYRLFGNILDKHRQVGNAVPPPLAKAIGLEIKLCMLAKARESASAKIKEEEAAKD

Orphan methyltransferase M.SssI, sequence (P15840 whole entry): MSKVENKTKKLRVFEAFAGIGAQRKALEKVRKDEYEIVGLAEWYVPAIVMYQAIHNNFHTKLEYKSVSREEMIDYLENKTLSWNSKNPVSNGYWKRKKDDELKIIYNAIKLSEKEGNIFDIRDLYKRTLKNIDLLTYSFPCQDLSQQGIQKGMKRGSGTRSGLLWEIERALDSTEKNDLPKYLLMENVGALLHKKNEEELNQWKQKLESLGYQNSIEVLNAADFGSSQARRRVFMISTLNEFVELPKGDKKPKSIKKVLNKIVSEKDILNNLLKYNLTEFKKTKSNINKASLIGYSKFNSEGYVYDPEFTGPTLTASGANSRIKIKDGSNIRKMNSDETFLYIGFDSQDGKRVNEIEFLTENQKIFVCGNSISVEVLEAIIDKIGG

SMILES	IC50 [1]	IC50 [2]
Cc1ccn2c(CCc3nnc4cc(C)ccn34)nnc2c1	0.4 µM	100 µM
O=C(O)C(Cc1c[nH]c2ccccc12)N1C(=O)c2ccccc2C1=O (centres undefined)	0.6 µM	50 µM
